Assay results published in US10314841B2, “Substituted pyrazoles as IRAK inhibitors” (Merck Patent GmbH, priority 2014, dated 2019).

Legend:
[1] = target: T1, IRAK1 (His-TEV-IRAK1 (194-712)) (Homo sapiens, UniProt P51617); test: IRAK1 enzymatic assay; assay type: biochemical; conditions: human recombinant His-TEV-IRAK1, ATP 1 μM, 3 hours at 30° C., FlashPlate
T1 construct: His-TEV-IRAK1 (194-712); His (N); TEV cleavage site (N)
Experimental: IRAK1 Enzymatic Assay IRAK1 is a human purified recombinant enzyme (His-TEV-IRAK1 (194-712)). In this assay, IRAK-1 hydrolyses ATP and autophosphorylates. Measurement of IRAK-1 inhibition was performed in streptavidin coated 384 well FlashPlate (PerkinElmer #SM[…]). His-TEV-IRAK-1 (15 ng/well), ATP (1 μ[…]]ATP 0.25 μCi/well) and compounds in DMSO (range of concentrations from 20 μM to 1 nM) or controls (2% DMSO) were incubated for 3 hours at 30° C. in assay buffer: Hepes pH7.0 50 mM, Fatty acid-free BSA 0.1%, Dithiothreitol DTT 2 mM, MgCl2 10 mM, EGTA 0.5 mM, Triton-X-100 0.01%. Kinase reaction was stopped by addition of EDTA. Supernatant was discarded, plates were washed three times with 150 mM NaCl and radioactivity was then measured in a Microbeta Trilux reader.

IRAK4 (His-TEV-IRAK4) = target: T2, IRAK4 (His-TEV-IRAK4) (Homo sapiens, UniProt Q9NWZ3); test: IRAK4 enzymatic assay; assay type: biochemical; conditions: human recombinant His-TEV-IRAK4, ATP 2 μM, STK1-biotin peptide 300 nM, 3 hours at 30° C., FlashPlate
T2 construct: His (N); TEV cleavage site (N)
T2 sequence (Q9NWZ3 1-460): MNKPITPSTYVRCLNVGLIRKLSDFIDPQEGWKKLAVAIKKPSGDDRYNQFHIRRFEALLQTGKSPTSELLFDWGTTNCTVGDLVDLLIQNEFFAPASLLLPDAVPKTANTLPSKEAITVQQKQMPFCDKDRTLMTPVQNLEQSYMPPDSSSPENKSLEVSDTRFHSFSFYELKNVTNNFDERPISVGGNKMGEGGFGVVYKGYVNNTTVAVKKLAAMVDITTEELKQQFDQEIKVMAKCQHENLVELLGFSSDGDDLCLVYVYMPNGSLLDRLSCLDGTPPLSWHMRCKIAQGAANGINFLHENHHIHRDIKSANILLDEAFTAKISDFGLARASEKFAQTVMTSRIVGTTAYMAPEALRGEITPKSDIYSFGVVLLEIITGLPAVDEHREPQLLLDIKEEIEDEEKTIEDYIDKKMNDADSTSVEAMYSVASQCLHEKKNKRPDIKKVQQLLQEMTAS
Experimental: IRAK4 Enzymatic Assay IRAK4 is a human purified recombinant enzyme (His-TEV-[…] (194-712). IRAK4 hydrolyses ATP, autophosphorylates and phosphorylates a Serine/Threonine generic peptidic substrate (STK: 61 ST1BLC from CisBio International based in Bagnols/Cèze FR). Measurement of IRAK-4 inhibition was performed in streptavidin coated 384 well FlashPlate (PerkinElmer #SM[…]). His-TEV-IRAK4 (20 ng/well), ATP (2 μM, [^33P]ATP 0.25 μCi/well), STK1-biotin peptide (300 nM) and compounds in DMSO (range of concentrations from 20 μM to 1 nM) or controls (2% DMSO) were incubated for 3 hours at 30° C. in assay buffer: Hepes pH7.0 50 mM, Fatty acid-free BSA 0.1%, Dithiothreitol DTT 2 mM, MgCl2 10 mM, EGTA 0.5 mM, Tween-20 0.01%, MnCl2 5 mM. Kinase reaction was stopped by addition of EDTA. Supernatant was discarded, plates were washed three times with 150 mM NaCl and radioactivity was then measured in a Microbeta Trilux reader.

T1 sequence (P51617 194-712): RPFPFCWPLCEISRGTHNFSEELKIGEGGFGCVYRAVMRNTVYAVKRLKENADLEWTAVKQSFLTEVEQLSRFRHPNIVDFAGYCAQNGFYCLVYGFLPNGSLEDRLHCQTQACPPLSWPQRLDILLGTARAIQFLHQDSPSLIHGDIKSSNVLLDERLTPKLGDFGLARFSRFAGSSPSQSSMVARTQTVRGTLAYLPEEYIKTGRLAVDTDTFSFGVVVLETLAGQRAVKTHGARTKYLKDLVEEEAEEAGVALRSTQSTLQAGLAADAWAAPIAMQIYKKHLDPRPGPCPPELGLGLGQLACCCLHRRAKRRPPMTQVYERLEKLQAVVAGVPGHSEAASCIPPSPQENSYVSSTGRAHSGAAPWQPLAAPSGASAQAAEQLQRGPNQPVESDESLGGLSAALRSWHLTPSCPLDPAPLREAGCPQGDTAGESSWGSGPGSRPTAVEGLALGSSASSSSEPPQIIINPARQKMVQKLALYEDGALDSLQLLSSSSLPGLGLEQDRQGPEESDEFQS

IC50 [1] | IC50 (IRAK4 (His-TEV-IRAK4)) | Compound
100 to 1000 nM | < 100 nM | CC(=O)N1CCC(n2cc(-c3cnc(-c4cccc(-c5cnn(C)c5)c4)nc3)cn2)C(CO)C1 (mixture of isomers) [Compound 22, 1-[3-Hydroxymethyl-4-(4-{2-[3-(1-methyl-1H-pyrazol-4-yl)-phenyl]-pyrimidin-5-yl}-pyrazol-1-yl)-piperidin-1-yl]-ethanone]
100 to 1000 nM | 100 to 1000 nM | Cn1cc(-c2cccc(-c3ncc(-c4cnn([C@H]5CCC[C@H](N6CCOCC6)C5)c4)cn3)c2)cn1 (relative stereo) [Compound 5, 4-[Trans-3-(4-{2-[3-(1-Methyl-1H-pyrazol-4-yl)-phenyl]-pyrimidin-5-yl}-pyrazol-1-yl)-cyclohexyl]-morpholine]
100 to 1000 nM | < 100 nM | Cn1cc(-c2cccc(-c3ncc(-c4cnn(C5CCCC(O)(CO)C5)c4)cn3)c2)cn1 (stereo not shown) [Compound 1, 1-Hydroxymethyl-3-(4-{2-[3-(1-methyl-1H-pyrazol-4-yl)-phenyl]-pyrimidin-5-yl}-pyrazol-1-yl)-cyclohexanol]
100 to 1000 nM | 100 to 1000 nM | Cn1cc(-c2cccc(-c3ncc(-c4cnn(CCNC(=O)OC(C)(C)C)c4)cn3)c2)cn1 [Compound 6, [2-(4-{2-[3-(1-Methyl-1H-pyrazol-4-yl)-phenyl]-pyrimidin-5-yl}-pyrazol-1-yl)-ethyl]-carbamic acid tert-butyl ester]
100 to 1000 nM | 100 to 1000 nM | Cn1cc(-c2cccc(-c3ncc(-c4cnn(C5CCCN(C(=O)OC(C)(C)C)C5)c4)cn3)c2)cn1 (stereo not shown) [Compound 7, 3-(4-{2-[3-(1-Methyl-1H-pyrazol-4-yl)-phenyl]-pyrimidin-5-yl}-pyrazol-1-yl)-piperidine-1-carboxylic acid tert-butyl ester]
100 to 1000 nM | 100 to 1000 nM | Cn1cc(-c2cccc(-c3ncc(-c4cnn(C5CCN(C(=O)OC(C)(C)C)CC5)c4)cn3)c2)cn1 [Compound 8, 4-(4-{2-[3-(1-Methyl-1H-pyrazol-4-yl)-phenyl]-pyrimidin-5-yl}-pyrazol-1-yl)-piperidine-1-carboxylic acid tert-butyl ester]
100 to 1000 nM | 100 to 1000 nM | C=CC(=O)NCCn1cc(-c2cnc(-c3cccc(-c4cnn(C)c4)c3)nc2)cn1 [Compound 13, N-[2-(4-{2-[3-(1-Methyl-1H-pyrazol-4-yl)-phenyl]-pyrimidin-5-yl}-pyrazol-1-yl)-ethyl]-acrylamide]
100 to 1000 nM | 100 to 1000 nM | C=CS(=O)(=O)NCCn1cc(-c2cnc(-c3cccc(-c4cnn(C)c4)c3)nc2)cn1 [Compound 16, Ethenesulfonic acid [2-(4-{2-[3-(1-methyl-1H-pyrazol-4-yl)-phenyl]-pyrimidin-5-yl}-pyrazol-1-yl)-ethyl]-amide]
100 to 1000 nM | < 100 nM | Cn1cc(-c2cccc(-c3ncc(-c4cnn(C5CCCNC(=O)C5)c4)cn3)c2)cn1 (stereo not shown) [Compound 23, 4-(4-{2-[3-(1-Methyl-1H-pyrazol-4-yl)-phenyl]-pyrimidin-5-yl}-pyrazol-1-yl)-azepan-2-one]
100 to 1000 nM | < 100 nM | CN1CCCC(n2cc(-c3cnc(-c4cccc(-c5cnn(C)c5)c4)nc3)cn2)CC1=O (stereo not shown) [Compound 24, 1-Methyl-4-(4-{2-[3-(1-methyl-1H-pyrazol-4-yl)-phenyl]-pyrimidin-5-yl}-pyrazol-1-yl)-azepan-2-one]
100 to 1000 nM | < 100 nM | Cn1cc(-c2cccc(-c3ncc(-c4cnn(C5CCCC(N6CCCC(F)(F)C6)C5)c4)cn3)c2)cn1 (stereo not shown) [Compound 25, 5-{1-[3-(3,3-Difluoro-piperidin-1-yl)-cyclohexyl]-1H-pyrazol-4-yl}-2-[3-(1-methyl-1H-pyrazol-4-yl)-phenyl]-pyrimidine]
1000 to 20000 nM | 100 to 1000 nM | COCC1CNCCC1n1cc(-c2cnc(-c3cccc(-c4cnn(C)c4)c3)nc2)cn1 (stereo not shown) [Compound 29, 5-[1-(3-Methoxymethyl-piperidin-4-yl)-1H-pyrazol-4-yl]-2-[3-(1-methyl-1H-pyrazol-4-yl)-phenyl]-pyrimidine]
1000 to 20000 nM | 100 to 1000 nM | O[C@H]1CC[C@H](n2cc(-c3cnc(-c4cccc(-c5cnn(CCN6CCOCC6)c5)c4)nc3)cn2)CC1 [Compound 30, (1r,4r)-4-[4-(2-{3-[1-(2-Morpholin-4-yl-ethyl)-1H-pyrazol-4-yl]-phenyl}-pyrimidin-5-yl)-pyrazol-1-yl]-cyclohexanol]
100 to 1000 nM | < 100 nM | Cn1cc(-c2cccc(-c3ncc(-c4cnn([C@H]5CC[C@]6(CCC(=O)N6CCO)CC5)c4)cn3)c2)cn1 [Compound 31, 1-(2-Hydroxy-ethyl)-8-(4-{2-[3-(1-methyl-1H-pyrazol-4-yl)-phenyl]-pyrimidin-5-yl}-pyrazol-1-yl)-1-aza-spiro[4.5]decan-2-one]
1000 to 20000 nM | 100 to 1000 nM | O[C@H]1CC[C@H](n2cc(-c3cnc(-c4cccc(-c5cnn(C6CCNCC6)c5)c4)nc3)cn2)CC1 [Compound 32, 4-(4-{2-[3-(1-Piperidin-4-yl-1H-pyrazol-4-yl)-phenyl]-pyrimidin-5-yl}-pyrazol-1-yl)-cyclohexanol]
100 to 1000 nM | 100 to 1000 nM | CC1COCCC1N1CCC[C@H](n2cc(-c3cnc(-c4cccc(-c5cnn(C)c5)c4)nc3)cn2)C1 (stereo partly drawn) [Compound 39, 2-[3-(1-Methyl-1H-pyrazol-4-yl)-phenyl]-5-{1-[(S)-1-(3-methyl-tetrahydro-pyran-4-yl)-piperidin-3-yl]-1H-pyrazol-4-yl}-pyrimidine]
100 to 1000 nM | 100 to 1000 nM | CC1COCCC1N1CCC[C@@H](n2cc(-c3cnc(-c4cccc(-c5cnn(C)c5)c4)nc3)cn2)C1 (stereo partly drawn) [Compound 40, 2-[3-(1-Methyl-1H-pyrazol-4-yl)-phenyl]-5-{1-[(R)-1-(3-methyl-tetrahydro-pyran-4-yl)-piperidin-3-yl]-1H-pyrazol-4-yl}-pyrimidine]
1000 to 20000 nM | 100 to 1000 nM | Cn1cc(-c2cccc(-c3ncc(-c4cnn(C5CCC(C(=O)O)C5)c4)cn3)c2)cn1 (stereo not shown) [Compound 42, 3-(4-{2-[3-(1-Methyl-1H-pyrazol-4-yl)-phenyl]-pyrimidin-5-yl}-pyrazol-1-yl)-cyclopentanecarboxylic acid]
– | < 100 nM | Cn1ccc(-c2cccc(-c3ncc(-c4cnn([C@H]5CC[C@]6(CCC(=O)N6C)CC5)c4)cn3)c2)n1 [Compound 44, 1-Methyl-8-(4-{2-[3-(1-methyl-1H-pyrazol-3-yl)-phenyl]-pyrimidin-5-yl}-pyrazol-1-yl)-1-aza-spiro[4.5]decan-2-one]
100 to 1000 nM | 100 to 1000 nM | CN(C)C/C=C/C(=O)N1CCC(n2cc(-c3cnc(-c4cccc(-c5cnn(C)c5)c4)nc3)cn2)CC1 [Compound 47, (E)-4-Dimethylamino-1-[4-(4-{2-[3-(1-methyl-1H-pyrazol-4-yl)-phenyl]-pyrimidin-5-yl}-pyrazol-1-yl)-piperidin-1-yl]-but-2-en-1-one]

Compound | IC50 [1] | IC50 (IRAK4 (His-TEV-IRAK4))
Cn1cc(-c2cccc(-c3ncc(-c4cnn([C@H]5C[C@@H]6CC[C@@H](N6)C5F)c4)cn3)c2)cn1 (stereo partly shown) [Compound 19, 2-Fluoro-3-(4-{2-[3-(1-methyl-1H-pyrazol-4-yl)-phenyl]-pyrimidin-5-yl}-pyrazol-1-yl)-8-aza-bicyclo[3.2.1]octane] | < 100 nM | < 100 nM
CN1[C@H]2CC[C@@H]1C(F)[C@@H](n1cc(-c3cnc(-c4cccc(-c5cnn(C)c5)c4)nc3)cn1)C2 (stereo partly shown) [Compound 20, 2-Fluoro-8-methyl-3-(4-{2-[3-(1-methyl-1H-pyrazol-4-yl)-phenyl]-pyrimidin-5-yl}-pyrazol-1-yl)-8-aza-bicyclo[3.2.1]octane] | 100 to 1000 nM | 100 to 1000 nM
